SMILES strings stand for the structures. Numbered stars: 1 amine (or outer) side, 2 acyl side, 3 side chain; on linkers, the order of the positions; unused ones are H or OH. Bridge positions count the residues as written; N and C are the ends. Square brackets hold non-standard residues; d marks the D form. Peptide text beside a SMILES is read from it. I, II: the chains in the order shown. * marks the point of attachment. Phe(3,4-Cl2) = N[C@@H](Cc1ccc(Cl)c(Cl)c1)C(=O)O; Phe(4-tBu) = CC(C)(C)c1ccc(C[C@H](N)C(=O)O)cc1; 2Nal = N[C@@H](Cc1ccc2ccccc2c1)C(=O)O; Diglycolyl = O=C(COCC(=O)[*:2])[*:1]; NMeR = CN[C@@H](CCCNC(=N)N)C(=O)O; NMeE = CN[C@@H](CCC(=O)O)C(=O)O; β3hE = N[C@@H](CCC(=O)O)CC(=O)O; Cha = N[C@@H](CC1CCCCC1)C(=O)O; Pen = CC(C)(S)[C@H](N)C(=O)O; Lauroyl = CCCCCCCCCCCC(=O)*; Dab = NCC[C@H](N)C(=O)O A value given as a limit tells only on which side of the number the result lay.

Chain of α4β7 (P13612 34-1032): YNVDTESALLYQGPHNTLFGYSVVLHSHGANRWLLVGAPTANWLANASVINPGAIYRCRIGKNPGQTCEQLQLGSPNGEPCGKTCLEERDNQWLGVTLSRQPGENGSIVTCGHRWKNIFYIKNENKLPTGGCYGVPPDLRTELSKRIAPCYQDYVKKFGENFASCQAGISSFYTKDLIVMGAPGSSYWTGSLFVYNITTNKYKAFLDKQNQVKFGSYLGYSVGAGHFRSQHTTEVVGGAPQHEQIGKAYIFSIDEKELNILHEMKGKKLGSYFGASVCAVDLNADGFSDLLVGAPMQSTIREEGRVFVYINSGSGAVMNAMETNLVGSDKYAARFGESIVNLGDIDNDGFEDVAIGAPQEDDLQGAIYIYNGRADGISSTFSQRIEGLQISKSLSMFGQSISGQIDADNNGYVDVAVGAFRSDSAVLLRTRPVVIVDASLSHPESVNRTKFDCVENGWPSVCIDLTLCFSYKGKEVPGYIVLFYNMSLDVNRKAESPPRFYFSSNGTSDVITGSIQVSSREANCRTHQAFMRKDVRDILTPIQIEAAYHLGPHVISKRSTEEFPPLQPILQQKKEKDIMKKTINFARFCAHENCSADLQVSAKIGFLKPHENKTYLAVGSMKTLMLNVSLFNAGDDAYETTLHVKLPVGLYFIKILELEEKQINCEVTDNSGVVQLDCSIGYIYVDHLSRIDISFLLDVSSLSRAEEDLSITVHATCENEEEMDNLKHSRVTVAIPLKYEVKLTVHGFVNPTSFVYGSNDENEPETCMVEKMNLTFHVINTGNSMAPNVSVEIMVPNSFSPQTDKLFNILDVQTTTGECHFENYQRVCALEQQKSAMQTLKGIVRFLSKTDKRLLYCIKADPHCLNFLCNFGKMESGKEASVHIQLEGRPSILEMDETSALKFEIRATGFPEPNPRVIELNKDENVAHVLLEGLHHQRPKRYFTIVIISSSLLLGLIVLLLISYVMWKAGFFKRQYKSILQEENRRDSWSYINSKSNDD
Chain of α4β7 (P26010 20-798): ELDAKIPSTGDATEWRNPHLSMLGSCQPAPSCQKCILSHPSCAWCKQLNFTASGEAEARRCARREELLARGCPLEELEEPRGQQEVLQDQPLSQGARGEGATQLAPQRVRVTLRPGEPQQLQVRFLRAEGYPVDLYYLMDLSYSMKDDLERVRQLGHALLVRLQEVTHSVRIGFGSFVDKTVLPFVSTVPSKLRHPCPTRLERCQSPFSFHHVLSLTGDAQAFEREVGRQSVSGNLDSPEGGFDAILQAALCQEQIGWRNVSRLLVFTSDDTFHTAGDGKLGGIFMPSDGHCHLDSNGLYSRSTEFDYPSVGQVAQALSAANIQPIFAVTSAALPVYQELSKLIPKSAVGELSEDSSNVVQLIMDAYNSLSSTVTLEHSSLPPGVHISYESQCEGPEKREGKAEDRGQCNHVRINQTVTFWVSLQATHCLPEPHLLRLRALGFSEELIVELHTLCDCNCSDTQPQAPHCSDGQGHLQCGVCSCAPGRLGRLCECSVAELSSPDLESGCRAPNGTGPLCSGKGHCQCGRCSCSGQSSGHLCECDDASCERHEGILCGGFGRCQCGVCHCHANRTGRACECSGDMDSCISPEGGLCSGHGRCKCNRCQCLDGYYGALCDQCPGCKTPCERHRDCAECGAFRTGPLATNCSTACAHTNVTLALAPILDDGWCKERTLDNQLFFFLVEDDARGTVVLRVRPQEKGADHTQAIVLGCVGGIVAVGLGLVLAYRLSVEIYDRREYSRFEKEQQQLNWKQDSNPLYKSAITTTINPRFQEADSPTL

For this assay, the target named is α4β7 (Homo sapiens, UniProt P13612+P26010). Put plainly: α4β7-MAdCAM Cell Adhesion Assay (RPMI 8866 human cells). It counts as cell-based. Details: host or cells: RPMI 8866 human B lymphoblastoid cells. Conditions: Table 3-B, Potency (α4β7); range classes; read-out: α4β7 cell (Hu) IC50. On the procedure:
RPMI 8866 human cells (Sigma #95041316) were cultured in RPMI 1640 HEPES medium (Invitrogen #22400-089) supplemented with 10% serum (Fetal Bovine Serum, Invitrogen #16140-071), 1 mM sodium pyruvate (Invitrogen #11360-070), 2 mM L-glutamine (Invitrogen #25030-081) and Penicillin-Streptomycin (Invitrogen #15140-122) at 100 units of penicillin and 100 μg of streptomycin per ml. The cells were washed two times in DMEM medium (ATCC #30-2002) supplemented with 0.1% BSA, 10 mM HEPES pH 7 and 1 mM MnCl2. The cells were re-suspended in supplemented DMEM medium at a density of 4×10^6 cells/ml.
A Nunc MaxiSorp plate was coated with rh MAdCAM-1/Fc Chimera (R&D #6065-MC) at 200 ng per well in 50 ul per well in 1×PBS and incubated at 4° C. overnight. The solution was then removed by shaking, blocked with 250 ul per well PBS containing 1% BSA, and incubated at 37° C. for 1 hr. The solution was removed by shaking. Peptides were diluted by serial dilution in a final volume of 50 ul per well (2× concentration). To each well, 50 ul of cells (200,000 cells) were added and the plate was incubated at 37° C., 5% CO2 for 30-45 min to allow cell adhesion. The wells were washed manually three times (100 ul per wash) with supplemented DMEM. After the final wash, 100 ul/well of supplemented DMEM and 10 ul/well of MTT reagent (ATTC cat#30-1010K) were added. The plate was incubated at 37° C., 5% CO2 for 2-3 hrs until a purple precipitate was visible. 100 ul of Detergent Reagent (ATTC cat#30-1010K) was added to each well. The plate was covered from the light, wrapped in Parafilm to prevent evaporation, and left overnight at room temperature in the dark. The plate was shaken for 5 min and the absorbance at 570 nm was measured. To calculate the dose response, the absorbance value of control wells not containing cells was subtracted from each test well.
A word on the IC50: it is the midpoint of a concentration-inhibition curve. For `CC(=O)N[C@@H]1C(=O)N(C)[C@@H](CCCNC(=N)N)C(=O)N[C@@H](CO)C(=O)N[C@@H](CC(=O)O)C(=O)N[C@@H](CC2CCCCC2)C(=O)N[C@@H](CC(C)C)C(=O)N[C@H](C(=O)N[C@@H](Cc2ccc3ccccc3c2)C(=O)N[C@H](CCC(=O)O)C(N)=O)C(C)(C)SSC1(C)C` [compound 158] (Ac-[Pen][NMeR]SD[Cha]L[Pen][2Nal][dE]-NH2; disulfide 1-7), the IC50 was 1000 to 10000 nM. Turning to `CC(=O)N[C@@H]1C(=O)N(C)[C@@H](CCCNC(=N)N)C(=O)N[C@@H](CO)C(=O)N[C@@H](CC(=O)O)C(=O)N[C@@H]([C@@H](C)O)C(=O)N[C@@H](CCC(N)=O)C(=O)N[C@H](C(=O)N[C@@H](Cc2ccc3ccccc3c2)C(=O)N[C@H](CCC(=O)O)C(N)=O)C(C)(C)SSC1(C)C` [compound 163] (Ac-[Pen][NMeR]SDTQ[Pen][2Nal][dE]-NH2; disulfide 1-7), the IC50 lay in the range of 1000 to 10000 nM.

For the molecule `CC(=O)N[C@@H]1C(=O)N(C)[C@@H](CCCNC(=N)N)C(=O)N[C@@H](CO)C(=O)N[C@@H](CC(=O)O)C(=O)N[C@@H]([C@@H](C)O)C(=O)N[C@@H](CC(C)C)C(=O)N[C@H](C(=O)N[C@@H](Cc2c[nH]c3ccccc23)C(=O)N[C@@H](CCC(=O)O)C(=O)N[C@@H](CCNC(=O)COCC(=O)NCC[C@H](NC(=O)[C@H](CCC(=O)O)NC(=O)[C@H](Cc2c[nH]c3ccccc23)NC(=O)[C@H]2NC(=O)[C@H](CC(C)C)NC(=O)[C@H]([C@@H](C)O)NC(=O)[C@H](CC(=O)O)NC(=O)[C@H](CO)NC(=O)[C@H](CCCNC(=N)N)N(C)C(=O)[C@@H](NC(C)=O)C(C)(C)SSC2(C)C)C(N)=O)C(N)=O)C(C)(C)SSC1(C)C` [compound 97] (I: Ac-[Pen][NMeR]SDTL[Pen]WE[Dab]-NH2 / II: Ac-[Pen][NMeR]SDTL[Pen]WE[Dab]-NH2; disulfide I:1-I:7, II:1-II:7; linker I:10-II:10 via Diglycolyl), the IC50 is less than 10 nM. Under `CC(=O)N[C@@H]1C(=O)N(C)[C@@H](CCCNC(=N)N)C(=O)N[C@@H](CO)C(=O)N[C@@H](CC(=O)O)C(=O)N[C@@H]([C@@H](C)O)C(=O)N[C@@H](CC(C)C)C(=O)N[C@H](C(=O)N[C@@H](Cc2ccc3ccccc3c2)C(=O)N[C@H](Cc2c[nH]cn2)C(=O)N[C@H](CCCCNC(=O)COCC(=O)NCCCC[C@@H](NC(=O)[C@@H](Cc2c[nH]cn2)NC(=O)[C@H](Cc2ccc3ccccc3c2)NC(=O)[C@H]2NC(=O)[C@H](CC(C)C)NC(=O)[C@H]([C@@H](C)O)NC(=O)[C@H](CC(=O)O)NC(=O)[C@H](CO)NC(=O)[C@H](CCCNC(=N)N)N(C)C(=O)[C@@H](NC(C)=O)C(C)(C)SSC2(C)C)C(N)=O)C(N)=O)C(C)(C)SSC1(C)C` [compound 118] (I: Ac-[Pen][NMeR]SDTL[Pen][2Nal][dH][dK]-NH2 / II: Ac-[Pen][NMeR]SDTL[Pen][2Nal][dH][dK]-NH2; disulfide I:1-I:7, II:1-II:7; linker I:10-II:10 via Diglycolyl) stands 25 to 50 nM; under `CC(=O)N[C@@H]1C(=O)N(C)[C@@H](CCCNC(=N)N)C(=O)N[C@@H](CO)C(=O)N[C@@H](CC(=O)O)C(=O)N[C@@H]([C@@H](C)O)C(=O)N[C@@H](CC(C)C)C(=O)N[C@H](C(=O)N[C@@H](Cc2ccc(Cl)c(Cl)c2)C(=O)N[C@H](CCC(=O)O)C(=O)N[C@H](CCCCNC(=O)COCC(=O)NCCCC[C@@H](NC(=O)[C@@H](CCC(=O)O)NC(=O)[C@H](Cc2ccc(Cl)c(Cl)c2)NC(=O)[C@H]2NC(=O)[C@H](CC(C)C)NC(=O)[C@H]([C@@H](C)O)NC(=O)[C@H](CC(=O)O)NC(=O)[C@H](CO)NC(=O)[C@H](CCCNC(=N)N)N(C)C(=O)[C@@H](NC(C)=O)C(C)(C)SSC2(C)C)C(N)=O)C(N)=O)C(C)(C)SSC1(C)C` [compound 102] (I: Ac-[Pen][NMeR]SDTL[Pen][Phe(3,4-Cl2)][dE][dK]-NH2 / II: Ac-[Pen][NMeR]SDTL[Pen][Phe(3,4-Cl2)][dE][dK]-NH2; disulfide I:1-I:7, II:1-II:7; linker I:10-II:10 via Diglycolyl), 100 to 500 nM. With `CCCCCCCCCCCC(=O)N[C@@H]1C(=O)N(C)[C@@H](CCCNC(=N)N)C(=O)N[C@@H](CO)C(=O)N[C@@H](CC(=O)O)C(=O)N[C@@H]([C@@H](C)O)C(=O)N[C@@H](CC(C)C)C(=O)N[C@H](C(=O)N[C@@H](Cc2ccc(C(C)(C)C)cc2)C(=O)N[C@@H](CCC(=O)O)CC(=O)N[C@H](CCCCN)C(N)=O)C(C)(C)SSC1(C)C` [compound 179] (Lauroyl-[Pen][NMeR]SDTL[Pen][Phe(4-tBu)][β3hE][dK]-NH2; disulfide 1-7), the IC50 was in the range of 100 to 500 nM. As for `CC(=O)N[C@@H]1C(=O)N(C)[C@@H](CCCNC(=N)N)C(=O)N[C@@H](CO)C(=O)N[C@@H](CC(=O)O)C(=O)N[C@@H]([C@@H](C)O)C(=O)N[C@@H](CC(C)C)C(=O)N[C@H](C(=O)N[C@@H](Cc2c[nH]c3ccccc23)C(=O)N(C)[C@@H](CCC(=O)O)C(=O)N[C@H](CCCCNC(=O)COCC(=O)NCCCC[C@@H](NC(=O)[C@H](CCC(=O)O)N(C)C(=O)[C@H](Cc2c[nH]c3ccccc23)NC(=O)[C@H]2NC(=O)[C@H](CC(C)C)NC(=O)[C@H]([C@@H](C)O)NC(=O)[C@H](CC(=O)O)NC(=O)[C@H](CO)NC(=O)[C@H](CCCNC(=N)N)N(C)C(=O)[C@@H](NC(C)=O)C(C)(C)SSC2(C)C)C(N)=O)C(N)=O)C(C)(C)SSC1(C)C` [compound 31] (I: Ac-[Pen][NMeR]SDTL[Pen]W[NMeE][dK]-NH2 / II: Ac-[Pen][NMeR]SDTL[Pen]W[NMeE][dK]-NH2; disulfide I:1-I:7, II:1-II:7; linker I:10-II:10 via Diglycolyl), the figure is 50 to 100 nM. As for `CC(=O)N[C@@H]1C(=O)N(C)[C@@H](CCCNC(=N)N)C(=O)N[C@@H](CO)C(=O)N[C@@H](CC(=O)O)C(=O)N[C@@H]([C@@H](C)O)C(=O)N[C@@H](CC(C)C)C(=O)N[C@H](C(=O)N[C@@H](Cc2c[nH]c3ccccc23)C(=O)N[C@@H](CC(=O)O)C(=O)N[C@H](CCCCNC(=O)COCC(=O)NCCCC[C@@H](NC(=O)[C@H](CC(=O)O)NC(=O)[C@H](Cc2c[nH]c3ccccc23)NC(=O)[C@H]2NC(=O)[C@H](CC(C)C)NC(=O)[C@H]([C@@H](C)O)NC(=O)[C@H](CC(=O)O)NC(=O)[C@H](CO)NC(=O)[C@H](CCCNC(=N)N)N(C)C(=O)[C@@H](NC(C)=O)C(C)(C)SSC2(C)C)C(N)=O)C(N)=O)C(C)(C)SSC1(C)C` [compound 87] (I: Ac-[Pen][NMeR]SDTL[Pen]WD[dK]-NH2 / II: Ac-[Pen][NMeR]SDTL[Pen]WD[dK]-NH2; disulfide I:1-I:7, II:1-II:7; linker I:10-II:10 via Diglycolyl), the figure is 25 to 50 nM; as for `CC(=O)N[C@@H]1C(=O)N(C)[C@@H](CCCNC(=N)N)C(=O)N[C@@H](CO)C(=O)N[C@@H](CC(=O)O)C(=O)N[C@@H]([C@@H](C)O)C(=O)N[C@@H](CC(C)C)C(=O)N[C@H](C(=O)N[C@@H](Cc2c[nH]c3ccccc23)C(=O)N[C@@H](CCC(=O)O)C(=O)N[C@@H](CCN)C(N)=O)C(C)(C)SSC1(C)C` [compound 61] (Ac-[Pen][NMeR]SDTL[Pen]WE[Dab]-NH2; disulfide 1-7), 1000 to 10000 nM; as for `CC(=O)N[C@@H]1C(=O)N(C)[C@@H](CCCNC(=N)N)C(=O)N[C@@H](CO)C(=O)N[C@@H](CC(=O)O)C(=O)N[C@@H]([C@@H](C)O)C(=O)N[C@@H](Cc2ccccc2)C(=O)N[C@H](C(=O)N[C@@H](Cc2ccc3ccccc3c2)C(=O)N[C@H](CCC(=O)O)C(N)=O)C(C)(C)SSC1(C)C` [compound 162] (Ac-[Pen][NMeR]SDTF[Pen][2Nal][dE]-NH2; disulfide 1-7), 1000 to 10000 nM.

Source of the values: patent US9809623B2, “α4β7 peptide monomer and dimer antagonists” (Protagonist Therapeutics, Inc., priority 2014, dated 2017).
